Assay results as given in patent publication US20090035394A1, “USE OF DNA-PK INHIBITION TO SENSITISE ATM DEFICIENT CANCERS TO DNA-DAMAGING CANCER THERAPIES” (priority 2005, published 2009).
Entries after “also recorded” stand apart in the source; their conditions may differ.

Key:
Format in all cases: cell-based, human
pEBS7 (ATM-null) cells [1] = test: Chemopotentiation, sulforhodamine B growth assay in 96 well plates; settings: for % survival / Avg (absorbance at 564 nm): pEBS7
Procedure: (§1) The A-T fibroblast AT221JE-T cells (pEBS7, herein referred to as ATM-null cells) and the trans-complemented ATM+/+ (pEBS7-YZ5, herein referred to as ATM-competent cells) were grown in DMEM+20% FBS PSG and 100 ug/ml hygromycin. These cells are immortalised fibroblasts from an A-T patient which were transfected with pEBS7-YZ5 vector coding for full length ATM and the hygromycin resistance marker or pEBS7 vector, coding for the hygromycin resistance marker only. (Ziv Y et al (1997) Oncogene 15, 159-67)
(§2) Following a 4-hour incubation to allow cell adherence, 5 μl DNA-PKcS inhibitor KU-0060648 (final concentration 0.5 μM) or DMSO/PBS equivalent was added. After a further 1 hour incubation, 5 μl of chemotherapeutic drug was added per well (see table 1). Drugs were removed after 16 hours and 150 μl fresh medium added per well. After 24h, one plate for each cell line was fixed and stained to account for background differences between the lines. Five days after seeding, the medium was aspirated from the wells of the remaining assay plates and 100 μl ice cold 10% TCA added for 30 minutes at 4° C. The wells were then washed four times with tap water and 50 μl 0.4% sulforhodamine B in 1% acetic acid added per well. After 15 minutes incubation at room temperature, excess stain was washed from the wells with 1% acetic acid. 100 μl […] pH6.8 was then added per well, the plates shaken to resuspend the stain and the absorbance at 564 nm determined.

[2] = system: pEBS7-YZ5 (ATM-competent, ATM+/+) cells; test: as above; settings: for % survival / Avg (absorbance at 564 nm): pEBS7-YZ
Procedure: as §1, §2

pEBS7 (ATM-null) cells [3] = test: Radio-potentiation, colony formation after ionising radiation; settings: for % survival: ATM-null pEBS7
Procedure: as §1
(§3) To show radio-potentiation, 2×10^5 cells per well were seeded into 6 well cluster plates. One plate was used for each dose of irradiation. After allowing the cells to adhere for 4 hours, the cells were dosed with a final concentration of 0.5 μM of the DNA-PKcs inhibitor KU-0060648 or equivalent DMSO/PBS control. After further incubation for 1 hour, the cells were irradiated with 0, 0.5, 1, 2 and 4 Grays. After 16 hours incubation, the cells were washed with 1 ml PBS and 500 μl trypsin EDTA added for 5 minutes at 37° C. 1.5 ml fresh medium was then added and the cell density in the untreated (0 Gy) wells determined. All subsequent calculations for seeding densities were performed according to this cell count. Cells were then replated into 2 mls fresh medium in 6 well cluster plates at the appropriate cell densities. After 6 days' incubation, the medium was removed by aspiration and cell colonies stained using 400 μl per well Giemsa stain for 20 minutes. Excess stain was washed from the plates with tap water and the plates left to air-dry. The number of colonies per well was then counted using Colcount software.

[4] = system: pEBS7-YZ5 (ATM-competent, ATM+/+) cells; test: as above; settings: for % survival: ATM-competent pEBS7-YZ
Procedure: as §1, §3

[5] = KU-0060648 0.5 μM + doxorubicin 0
[6] = KU-0060648 0.5 μM + doxorubicin 0.01 (unit not given)
[7] = KU-0060648 0.5 μM + doxorubicin 0.025 (unit not given)
[8] = KU-0060648 0.5 μM + doxorubicin 0.05 (unit not given)
[9] = KU-0060648 0.5 μM + doxorubicin 0.075 (unit not given)
[10] = KU-0060648 0.5 μM + doxorubicin 0.1 (unit not given)
[11] = KU-0060648 0.5 μM + doxorubicin 0.25 (unit not given)
[12] = KU-0060648 0.5 μM + doxorubicin 0.5 (unit not given)
[13] = KU-0060648 0.5 μM + doxorubicin 0.75 (unit not given)
[14] = KU-0060648 0.5 μM + doxorubicin 1 (unit not given)
[15] = KU-0060648 0.5 μM + doxorubicin 2.5 (unit not given)
[16] = KU-0060648 0.5 μM + doxorubicin 5 (unit not given)
[17] = KU-0060648 0.5 μM + etoposide 0
[18] = KU-0060648 0.5 μM + etoposide 0.01 (μg/ml per Table 1)
[19] = KU-0060648 0.5 μM + etoposide 0.025 (μg/ml per Table 1)
[20] = KU-0060648 0.5 μM + etoposide 0.05 (μg/ml per Table 1)
[21] = KU-0060648 0.5 μM + etoposide 0.075 (μg/ml per Table 1)
[22] = KU-0060648 0.5 μM + etoposide 0.1 (μg/ml per Table 1)
[23] = KU-0060648 0.5 μM + etoposide 0.25 (μg/ml per Table 1)
[24] = KU-0060648 0.5 μM + etoposide 0.5 (μg/ml per Table 1)
[25] = KU-0060648 0.5 μM + etoposide 0.75 (μg/ml per Table 1)
[26] = KU-0060648 0.5 μM + etoposide 1 (μg/ml per Table 1)
[27] = KU-0060648 0.5 μM + etoposide 2.5 (μg/ml per Table 1)
[28] = KU-0060648 0.5 μM + etoposide 5 (μg/ml per Table 1)

CCN1CCN(CC(=O)Nc2ccc(-c3cccc4c(=O)cc(N5CCOCC5)oc34)c3sc4ccccc4c23)CC1 [KU-0060648, 2-(4-Ethyl-piperazin-1-yl)-N-[4-(2-morpholin-4-yl-4-oxo-4H-1-benzopyran-8-yl)-dibenzothiophen-1-yl]-acetamide]
potentiation of etoposide (pEBS7 (ATM-null) cells [1]; ATM-null cells): increased sensitisation; also recorded: significantly potentiated | potentiation of the effect of doxorubicin (pEBS7 (ATM-null) cells [1]; ATM-null cells): increased sensitivity; also recorded: significantly potentiate | % survival (pEBS7 (ATM-null) cells [1]; [5]): 100% | Avg (absorbance at 564 nm) (pEBS7 (ATM-null) cells [1]; [5]): 1.42 | % survival (pEBS7 (ATM-null) cells [1]; [6]): 107.9% | Avg (absorbance at 564 nm) (pEBS7 (ATM-null) cells [1]; [6]): 1.53 | % survival (pEBS7 (ATM-null) cells [1]; [7]): 87.0% | Avg (absorbance at 564 nm) (pEBS7 (ATM-null) cells [1]; [7]): 1.23 | % survival (pEBS7 (ATM-null) cells [1]; [8]): 81.3% | Avg (absorbance at 564 nm) (pEBS7 (ATM-null) cells [1]; [8]): 1.15 | % survival (pEBS7 (ATM-null) cells [1]; [9]): 82.3% | Avg (absorbance at 564 nm) (pEBS7 (ATM-null) cells [1]; [9]): 1.17 | % survival (pEBS7 (ATM-null) cells [1]; [10]): 88.7% | Avg (absorbance at 564 nm) (pEBS7 (ATM-null) cells [1]; [10]): 1.26 | % survival (pEBS7 (ATM-null) cells [1]; [11]): 22.1% | Avg (absorbance at 564 nm) (pEBS7 (ATM-null) cells [1]; [11]): 0.31 | % survival (pEBS7 (ATM-null) cells [1]; [12]): 6.2% | Avg (absorbance at 564 nm) (pEBS7 (ATM-null) cells [1]; [12]): 0.09 | % survival (pEBS7 (ATM-null) cells [1]; [13]): 0.6% | Avg (absorbance at 564 nm) (pEBS7 (ATM-null) cells [1]; [13]): 0.01 | % survival (pEBS7 (ATM-null) cells [1]; [14]): −2.2% | Avg (absorbance at 564 nm) (pEBS7 (ATM-null) cells [1]; [14]): −0.03 | % survival (pEBS7 (ATM-null) cells [1]; [15]): −2.0% | Avg (absorbance at 564 nm) (pEBS7 (ATM-null) cells [1]; [15]): −0.03 | % survival (pEBS7 (ATM-null) cells [1]; [16]): −0.8% | Avg (absorbance at 564 nm) (pEBS7 (ATM-null) cells [1]; [16]): −0.01 | % survival (pEBS7 (ATM-null) cells [1]; [17]): 100% | Avg (absorbance at 564 nm) (pEBS7 (ATM-null) cells [1]; [17]): 1.61 | % survival (pEBS7 (ATM-null) cells [1]; [18]): 84.7% | Avg (absorbance at 564 nm) (pEBS7 (ATM-null) cells [1]; [18]): 1.36 | % survival (pEBS7 (ATM-null) cells [1]; [19]): 72.7% | Avg (absorbance at 564 nm) (pEBS7 (ATM-null) cells [1]; [19]): 1.17 | % survival (pEBS7 (ATM-null) cells [1]; [20]): 72.7% | Avg (absorbance at 564 nm) (pEBS7 (ATM-null) cells [1]; [20]): 1.17 | % survival (pEBS7 (ATM-null) cells [1]; [21]): 62.3% | Avg (absorbance at 564 nm) (pEBS7 (ATM-null) cells [1]; [21]): 1.00 | % survival (pEBS7 (ATM-null) cells [1]; [22]): 27.9% | Avg (absorbance at 564 nm) (pEBS7 (ATM-null) cells [1]; [22]): 0.45 | % survival (pEBS7 (ATM-null) cells [1]; [23]): 13.6% | Avg (absorbance at 564 nm) (pEBS7 (ATM-null) cells [1]; [23]): 0.22 | % survival (pEBS7 (ATM-null) cells [1]; [24]): 7.9% | Avg (absorbance at 564 nm) (pEBS7 (ATM-null) cells [1]; [24]): 0.13 | % survival (pEBS7 (ATM-null) cells [1]; [25]): 1.2% | Avg (absorbance at 564 nm) (pEBS7 (ATM-null) cells [1]; [25]): 0.02 | % survival (pEBS7 (ATM-null) cells [1]; [26]): −0.4% | Avg (absorbance at 564 nm) (pEBS7 (ATM-null) cells [1]; [26]): −0.01 | % survival (pEBS7 (ATM-null) cells [1]; [27]): −1.5% | Avg (absorbance at 564 nm) (pEBS7 (ATM-null) cells [1]; [27]): −0.02 | % survival (pEBS7 (ATM-null) cells [1]; [28]): −1.7% | Avg (absorbance at 564 nm) (pEBS7 (ATM-null) cells [1]; [28]): −0.03 | potentiation of etoposide ([2]; ATM-competent cells): not | potentiation of the effect of doxorubicin ([2]; ATM-competent cells): not | % survival [2, 5]: 100% | Avg (absorbance at 564 nm) [2, 5]: 1.62 | % survival [2, 6]: 92.3% | Avg (absorbance at 564 nm) [2, 6]: 1.50 | % survival [2, 7]: 96.1% | Avg (absorbance at 564 nm) [2, 7]: 1.56 | % survival [2, 8]: 102.9% | Avg (absorbance at 564 nm) [2, 8]: 1.67 | % survival [2, 9]: 94.1% | Avg (absorbance at 564 nm) [2, 9]: 1.53 | % survival [2, 10]: 98.5% | Avg (absorbance at 564 nm) [2, 10]: 1.60 | % survival [2, 11]: 80.4% | Avg (absorbance at 564 nm) [2, 11]: 1.30 | % survival [2, 12]: 36.6% | Avg (absorbance at 564 nm) [2, 12]: 0.59 | % survival [2, 13]: 23.4% | Avg (absorbance at 564 nm) [2, 13]: 0.38 | % survival [2, 14]: 1.1% | Avg (absorbance at 564 nm) [2, 14]: 0.02 | % survival [2, 15]: −2.1% | Avg (absorbance at 564 nm) [2, 15]: −0.03 | % survival [2, 16]: −1.9% | Avg (absorbance at 564 nm) [2, 16]: −0.03 | % survival [2, 17]: 100% | Avg (absorbance at 564 nm) [2, 17]: 1.79 | % survival [2, 18]: 88.8% | Avg (absorbance at 564 nm) [2, 18]: 1.59 | % survival [2, 19]: 84.9% | Avg (absorbance at 564 nm) [2, 19]: 1.52 | % survival [2, 20]: 87.2% | Avg (absorbance at 564 nm) [2, 20]: 1.56 | % survival [2, 21]: 86.1% | Avg (absorbance at 564 nm) [2, 21]: 1.54 | % survival [2, 22]: 88.9% | Avg (absorbance at 564 nm) [2, 22]: 1.59 | % survival [2, 23]: 102.7% | Avg (absorbance at 564 nm) [2, 23]: 1.84 | % survival [2, 24]: 55.0% | Avg (absorbance at 564 nm) [2, 24]: 0.99 | % survival [2, 25]: 27.6% | Avg (absorbance at 564 nm) [2, 25]: 0.49 | % survival [2, 26]: 4.5% | Avg (absorbance at 564 nm) [2, 26]: 0.08 | % survival [2, 27]: 5.7% | Avg (absorbance at 564 nm) [2, 27]: 0.10 | % survival [2, 28]: 8.6% | Avg (absorbance at 564 nm) [2, 28]: 0.15 | potentiation of the effect of irradiation (pEBS7 (ATM-null) cells [3]; ATM-null cells): increased sensitivity; also recorded: significantly potentiate | % survival (pEBS7 (ATM-null) cells [3]; KU-0060648 0.5 μM + IR 0 Gy): 100.0% | % survival (pEBS7 (ATM-null) cells [3]; KU-0060648 0.5 μM + IR 0.5 Gy): 15.8% | % survival (pEBS7 (ATM-null) cells [3]; KU-0060648 0.5 μM + IR 1 Gy): 3.8% | % survival (pEBS7 (ATM-null) cells [3]; KU-0060648 0.5 μM + IR 2 Gy): 1.3% | % survival (pEBS7 (ATM-null) cells [3]; KU-0060648 0.5 μM + IR 4 Gy): 0.3% | 2Gy DMR (dose modification ratio) (pEBS7 (ATM-null) cells [3]; single 2 Gy without / with KU-0060648 (0.5 μM), pEBS7 (ATM-null)): 5.7 | potentiation of the effect of irradiation ([4]; ATM-competent cells): not | % survival ([4]; KU-0060648 0.5 μM + IR 0 Gy): 100.0% | % survival ([4]; KU-0060648 0.5 μM + IR 0.5 Gy): 39.3% | % survival ([4]; KU-0060648 0.5 μM + IR 1 Gy): 13.5% | % survival ([4]; KU-0060648 0.5 μM + IR 2 Gy): 6.2% | % survival ([4]; KU-0060648 0.5 μM + IR 4 Gy): 1.7% | 2Gy DMR (dose modification ratio) ([4]; single 2 Gy without / with KU-0060648 (0.5 μM), pEBS7-YZ (ATM-competent)): 2.0
